System: SR-GVHD model induced by allogeneic transplantation
Assay: SR-GVHD mouse allogeneic transplantation model, switching from steroid to conjugate (Example 4)
Type: in vivo, BALB/C mice (recipients)
Conditions: Group 2: Apraglutide 469 µg/kg once every other day, subcutaneously, from 3 days after splenocyte injection; excipient group 21.4%; FIG. 4
Procedure: In order to construct a mouse allogeneic transplantation model as a graft-versus-host disease (GVHD) model, female donor mice C57BL/6j were purchased from OrientBio (Korea), and female recipient mice BALB/C were purchased from DBL (Korea). The mice were raised in a sterile environment with a 12-h light/dark cycle. Food and water were provided ad libitum, and all procedures were performed under the approval of the Animal Experimentation Committee.
In order to mobilize hematopoietic stem cells (HSCs) into peripheral blood from 13-week-old C57BL/6j mice (donors), 10 µg of G-CSF (granulocyte-colony stimulating factor) (PeproTech, USA) was injected subcutaneously for 5 days, and then 1.5 × 10^7 splenocytes were collected. The 1.5 × 10^7 splenocytes (200 µL volume) were injected into BALB/C mice (recipients) through the tail vein. […]
The numerical value expressed as the dose of the GLP-2 derivative long-acting conjugate herein is based on the value acquired by excluding the mass of the polyethylene glycol linker moiety from the total mass of the GLP-2 derivative long-acting conjugate used, that is, the sum of the masses of only the polypeptide moieties.
The onset signs were evaluated using the same criteria as in Table 3, the survival rate was determined, and the small intestine and colon tissues were harvested and pathological changes were observed.

Q: For Apraglutide, which “survival rate on day 25” value is on record?
A: Its value is 35.7%.
